According to ChEMBL document CHEMBL1201862, “PubChem BioAssay data set” (2004):
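These data come from cells grown in 96-well plates and exposed to compound for 48 hours at five concentrations. GI50 = concentration required for 50% inhibition of growth.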 The source made the active and inactive calls. Cut-off read from the data, not from the text of the source: active = GI50 up to about 1.1 µM and inactive = higher.

How the values were obtained:
Test in all cases: DTP human tumour cell line panel, 48 h
LOX IMVI = tested on: LOX IMVI
OVCAR-4 = tested on: OVCAR-4
NCI/ADR-RES = tested on: NCI/ADR-RES
HL-60 = tested on: HL-60
UACC-62 = tested on: UACC-62
OVCAR-8 = tested on: OVCAR-8
KM12 = tested on: KM12
SR = tested on: SR
MDA-MB-435 = tested on: MDA-MB-435
SK-MEL-2 = tested on: SK-MEL-2
SK-MEL-28 = tested on: SK-MEL-28
A498 = tested on: A498
IGROV-1 = tested on: IGROV-1
SF-539 = tested on: SF-539
SK-OV-3 = tested on: SK-OV-3
COLO 205 = tested on: COLO 205
Hs-578T = tested on: Hs-578T
HT-29 = tested on: HT-29
OVCAR-3 = tested on: OVCAR-3
PC-3 = tested on: PC-3

Structure (SMILES) | GI50 (LOX IMVI) | GI50 (OVCAR-4) | GI50 (NCI/ADR-RES) | GI50 (HL-60) | GI50 (UACC-62) | GI50 (OVCAR-8) | GI50 (KM12) | GI50 (SR) | GI50 (MDA-MB-435) | GI50 (SK-MEL-2) | GI50 (SK-MEL-28) | GI50 (A498) | GI50 (IGROV-1) | GI50 (SF-539) | GI50 (SK-OV-3) | GI50 (COLO 205) | GI50 (Hs-578T) | GI50 (HT-29) | GI50 (OVCAR-3) | GI50 (PC-3)
CC(N/N=C(\S)N1CCCC1)c1cccnn1 (stereo not given) | 0.444 µM (active) | 0.695 µM (active) | 0.48 µM (active) | 0.361 µM (active) | 0.414 µM (active) | 0.342 µM (active) | 0.719 µM (active) | 0.378 µM (active) | 1.13 µM (inactive) | 0.906 µM (active) | 0.453 µM (active) | 4.91 µM (inactive) | 0.43 µM (active) | 0.215 µM (active) | 0.337 µM (active) | 0.376 µM (active) | 9.53 µM (inactive) | 0.426 µM (active) | 0.29 µM (active) | 0.375 µM (active)
O=C1OC(C(O)C(O)C(O)CO)C(O)C1O (stereo not given) | > 100 µM (inactive) | > 100 µM (inactive) | > 100 µM (inactive) | > 100 µM (inactive) | > 100 µM (inactive) | > 100 µM (inactive) | > 100 µM (inactive) | > 100 µM (inactive) | > 100 µM (inactive) | > 100 µM (inactive) | > 100 µM (inactive) | > 100 µM (inactive) | > 100 µM (inactive) | > 100 µM (inactive) | > 100 µM (inactive) | > 100 µM (inactive) | > 100 µM (inactive) | > 100 µM (inactive) | > 100 µM (inactive) | > 100 µM (inactive)
Cc1ccc(S(=O)(=O)Oc2cc(S(=O)(=O)O)cc3cc(S(=O)(=O)O)cc(N)c23)cc1 | > 100 µM (inactive) | > 100 µM (inactive) | > 100 µM (inactive) | > 100 µM (inactive) | > 100 µM (inactive) | > 100 µM (inactive) | > 100 µM (inactive) | > 100 µM (inactive) | > 100 µM (inactive) | > 100 µM (inactive) | > 100 µM (inactive) | > 100 µM (inactive) | > 100 µM (inactive) | > 100 µM (inactive) | > 100 µM (inactive) | > 100 µM (inactive) | > 100 µM (inactive) | > 100 µM (inactive) | > 100 µM (inactive) | > 100 µM (inactive)
CC(C)=CCc1c(O)cc2oc(-c3ccc(O)cc3O)cc(=O)c2c1O | 9.53 µM (inactive) | 20.2 µM (inactive) | 33.3 µM (inactive) | 20.1 µM (inactive) | 18.1 µM (inactive) | 36.7 µM (inactive) | 19.5 µM (inactive) | 18.2 µM (inactive) | 26.4 µM (inactive) | 25.4 µM (inactive) | 31.6 µM (inactive) | 44.2 µM (inactive) | 33.5 µM (inactive) | 27.4 µM (inactive) | 36 µM (inactive) | 28.2 µM (inactive) | 42.8 µM (inactive) | 23.1 µM (inactive) | 21.8 µM (inactive) | 34.7 µM (inactive)
CCOC1SC(SC)=NN1C(=O)C(OC(C)=O)C(OC(C)=O)C(OC(C)=O)C(OC(C)=O)C(=O)N1N=C(SC)SC1OCC (stereo not given) | > 100 µM (inactive) | 78.5 µM (inactive) | > 100 µM (inactive) | > 100 µM (inactive) | > 100 µM (inactive) | > 100 µM (inactive) | > 100 µM (inactive) | > 100 µM (inactive) | > 100 µM (inactive) | > 100 µM (inactive) | > 100 µM (inactive) | > 100 µM (inactive) | > 100 µM (inactive) | 69.7 µM (inactive) | > 100 µM (inactive) | > 100 µM (inactive) | 35.2 µM (inactive) | > 100 µM (inactive) | > 100 µM (inactive) | > 100 µM (inactive)
Cc1cc(=O)[nH]c2cc(NC(=O)C(CCCNC(=N)N)NC(=O)OCc3ccccc3)ccc12 (stereo not given) | > 100 µM (inactive) | > 100 µM (inactive) | > 100 µM (inactive) | > 100 µM (inactive) | > 100 µM (inactive) | > 100 µM (inactive) | > 100 µM (inactive) | > 100 µM (inactive) | > 100 µM (inactive) | > 100 µM (inactive) | > 100 µM (inactive) | > 100 µM (inactive) | > 100 µM (inactive) | > 100 µM (inactive) | 4.28 µM (inactive) | > 100 µM (inactive) | > 100 µM (inactive) | > 100 µM (inactive) | > 100 µM (inactive) | > 100 µM (inactive)
C=CCC1(O)C(=O)OC2C(O)COC21O (stereo not given) | > 100 µM (inactive) | > 100 µM (inactive) | > 100 µM (inactive) | > 100 µM (inactive) | > 100 µM (inactive) | > 100 µM (inactive) | > 100 µM (inactive) | > 100 µM (inactive) | > 100 µM (inactive) | > 100 µM (inactive) | 23 µM (inactive) | > 100 µM (inactive) | > 100 µM (inactive) | > 100 µM (inactive) | > 100 µM (inactive) | > 100 µM (inactive) | > 100 µM (inactive) | > 100 µM (inactive) | > 100 µM (inactive) | > 100 µM (inactive)
O=C(Cc1ccc(OCc2cccc(Cl)c2)cc1)NO | 11.7 µM (inactive) | 15.3 µM (inactive) | 12.2 µM (inactive) | 12.1 µM (inactive) | 18.7 µM (inactive) | 11.7 µM (inactive) | 27.6 µM (inactive) | 5.81 µM (inactive) | 41.8 µM (inactive) | 21 µM (inactive) | 32.9 µM (inactive) | 2.7 µM (inactive) | 17.5 µM (inactive) | 29.6 µM (inactive) | 29.8 µM (inactive) | 25 µM (inactive) | 30 µM (inactive) | 27 µM (inactive) | 22.2 µM (inactive) | 9.18 µM (inactive)
O=C1c2ccccc2C(=O)c2c1ccc1nc3c(nc21)-c1c2ccccc2cc2cccc-3c12 | 19.9 µM (inactive) | > 70.1 µM (inactive) | 36.3 µM (inactive) | 10 µM (inactive) | 26.5 µM (inactive) | 27.4 µM (inactive) | 8.36 µM (inactive) | 5.27 µM (inactive) | 18.6 µM (inactive) | 68.9 µM (inactive) | > 92.7 µM (inactive) | > 50.9 µM (inactive) | 9.16 µM (inactive) | 21.4 µM (inactive) | 41.1 µM (inactive) | 90.8 µM (inactive) | 13.7 µM (inactive) | 27 µM (inactive) | 43.8 µM (inactive) | 41.9 µM (inactive)
CC(O)(/C=C/c1ccccc1)P(=O)(O)c1ccccc1 (stereo not given) | > 100 µM (inactive) | > 100 µM (inactive) | > 100 µM (inactive) | > 100 µM (inactive) | > 100 µM (inactive) | > 100 µM (inactive) | > 100 µM (inactive) | > 100 µM (inactive) | > 100 µM (inactive) | > 100 µM (inactive) | > 100 µM (inactive) | > 100 µM (inactive) | > 100 µM (inactive) | > 100 µM (inactive) | > 100 µM (inactive) | > 100 µM (inactive) | > 100 µM (inactive) | > 100 µM (inactive) | > 100 µM (inactive) | > 100 µM (inactive)
CCCCCCCCCCCCCCC[C@@H](O)C[N+](C)(C)CCO | 2.07 µM (inactive) | 4.2 µM (inactive) | 13.6 µM (inactive) | 0.149 µM (active) | 3.92 µM (inactive) | 5.13 µM (inactive) | 0.841 µM (active) | 1.72 µM (inactive) | 4.84 µM (inactive) | 9.55 µM (inactive) | 19.3 µM (inactive) | 19.1 µM (inactive) | 0.434 µM (active) | 2.39 µM (inactive) | 7.76 µM (inactive) | 2.57 µM (inactive) | 1.38 µM (inactive) | 1.2 µM (inactive) | 4.42 µM (inactive) | 1.06 µM (active)
C[N+]12CCCCC1C(CN1C(=O)Cc3c4ccccc4c(c4ccccc34)CC1=O)CCC2 (stereo not given) | > 100 µM (inactive) | > 100 µM (inactive) | > 100 µM (inactive) | > 100 µM (inactive) | > 100 µM (inactive) | > 100 µM (inactive) | > 100 µM (inactive) | > 100 µM (inactive) | > 100 µM (inactive) | > 100 µM (inactive) | > 100 µM (inactive) | > 100 µM (inactive) | > 100 µM (inactive) | > 100 µM (inactive) | > 100 µM (inactive) | > 100 µM (inactive) | > 100 µM (inactive) | > 100 µM (inactive) | > 100 µM (inactive) | > 100 µM (inactive)
CC1=NN(c2ccccc2)C(=O)C1/N=N/c1ccc([As](=O)(O)O)c(O)c1 (stereo not given) | > 100 µM (inactive) | > 100 µM (inactive) | > 100 µM (inactive) | 87.1 µM (inactive) | > 100 µM (inactive) | > 100 µM (inactive) | > 100 µM (inactive) | > 100 µM (inactive) | > 100 µM (inactive) | > 100 µM (inactive) | > 100 µM (inactive) | > 100 µM (inactive) | > 100 µM (inactive) | > 100 µM (inactive) | > 100 µM (inactive) | > 100 µM (inactive) | > 100 µM (inactive) | > 100 µM (inactive) | > 100 µM (inactive) | > 100 µM (inactive)
O=C1C(C(c2ccc([N+](=O)[O-])cc2)N2CCOCC2)=C(O)C(c2ccccc2)N1c1ccccc1 (stereo not given) | > 10 µM (inactive) | > 10 µM (inactive) | > 10 µM (inactive) | > 10 µM (inactive) | > 10 µM (inactive) | > 10 µM (inactive) | > 10 µM (inactive) | > 10 µM (inactive) | > 10 µM (inactive) | > 10 µM (inactive) | > 10 µM (inactive) | > 10 µM (inactive) | > 10 µM (inactive) | > 10 µM (inactive) | > 10 µM (inactive) | > 10 µM (inactive) | > 10 µM (inactive) | > 10 µM (inactive) | > 10 µM (inactive) | > 10 µM (inactive)
